Like-named read-outs stand apart in the source and are kept apart here.

We go through 6 compounds from PMC8646019, “Azvudine is a thymus-homing anti-SARS-CoV-2 drug effective in treating COVID-19 patients” (Signal Transduction and Targeted Therapy, 2021).

A short description of data set [1]: Biodistribution and metabolism of remdesivir in rats (UHPLC-MS/MS). Type of data set: in vivo, Sprague-Dawley rats. The settings on record: rat; for Concentration in PBMCs / Concentration in brain / Concentration in epididymis / Concentration in heart / Concentration in liver / Concentration in lung / concentration at 2 h / concentration at 6 h: GS-5734 100 mg/kg i.p.; for Concentration in PBMCs / Concentration in brain / Concentration in epididymis / Concentration in heart / Concentration in liver / Concentration in lung: average n=5; for concentration at 2 h / concentration at 6 h: male, Sprague-Dawley, in vivo, 100 mg/kg. On the procedure: 10 male Sprague-Dawley rats (250 ± 25 g) were purchased from Vital River Laboratories Co., LTD (Beijng, China). The rats were divided randomly into two groups with five rats in each, and were administered with GS-5734 at a single dose of 100 mg/kg, i.p. At the time point of 2h and 6h after drug administration, rats in one group were dissected with euthanization and blood samples as well as heart, liver, spleen, lung, kidney, brain, thymus, testis, and epididymis were collected for UHPLC-MS/MS analysis as mentioned above.
The analysis method was like that for FNC expect that the flow rate was set at 0.4 mL/min and the gradient elution was employed using the following program: 0-1.5min, 100-65%B; 1.5-4min, 65-60%B; 4-5min, 60-56%B. Multiple-reaction monitoring (MRM) mode was performed using the characteristic precursor to product ion transitions (Supplementary Table 4b).
The standard curves of blank kidney tissue matrix, plasma matrix and PBMCs matrix were applied for quantitative analysis of GS-5734 and its metabolites. GS-5734, Nuc, Nuc-MP and Nuc-TP were quantified using their own standard curves, and the metabolites of GS-5734 (Ala-Nuc and Nuc-DP) were quantified using Nuc-MP standard curves.
Figure. S4. […] 10 male Sprague-Dawley rats were administered with GS-5734 at a single dose of 100 mg/kg, i.p. At the time point of 2 h and 6 h after drug administration, five rats were dissected. The blood samples as well as heart, liver, spleen, lung, kidney, brain, thymus, testis, and epididymis were collected for UHPLC-MS/MS analysis performed on a UHPLC system (1290 series, Agilent Technologies, US) coupled to a triple quadrupole mass spectrometer (Agilent 6470 QQQ). a.

Data set [2] relates to SARS-CoV-2. The data set can be described thus: Anti-SARS-CoV-2 assay in Vero E6 cells (qRT-PCR of viral RNA copies, CPE). The class given is cell-based. Background: Quantitative PCR measures a nucleic acid by following its amplification.
Data set [3] in a line: Cytotoxicity in Vero E6 cells (Cell Titer 96 Aqueous one Solution Cell Proliferation Assay). Type of data set: cell-based. The note with it: African green monkey, Vero E6, 48 h. The protocol:
(§1) The cytotoxicity of the tested drugs in Vero E6 or Calu-3 Cells were determined by Cell Titer 96® Aqueous one Solution Cell Proliferation Assay (Promega, US). To evaluate the antiviral efficacy of the drugs, Vero E6 or Calu-3 cells were cultured overnight in 96-well plate with a density of 4 ×10^4 cells/well. Cells were pre-treated with the different doses of the indicated antivirals for 1 h. Viruses (MOI=0.05) were subsequently added to cells, followed by 1 h incubation. Then, the virus-drug mixture was removed and cells were further cultured with fresh drug-containing medium. At 48 h post infection (pi), the culture supernatant was collected and lysed in Trizol (Thermo, Cat no. 15596018) for further analysis. Remdesivir was tested as reference.

In data set [4] the test system is SARS-CoV-2. The data set is described as follows: Anti-SARS-CoV-2 assay in Calu-3 cells (qRT-PCR). Type of data set: cell-based.
A short description of data set [5]: Cytotoxicity in Calu-3 cells (Cell Titer 96 Aqueous one Solution Cell Proliferation Assay). Type of data set: cell-based. The settings on record: human, Calu-3, 48 h. The protocol:
as §1

Data set [6] relates to HCoV-OC43. The data set can be described thus: Anti-HCoV-OC43 assay in H460 cells (CPE, Western blot, immunofluorescence). The class given is cell-based.
Data set [7] relates to SARS-CoV-2 and HCoV-OC43 coronavirus. The data set can be described thus: Anti-coronavirus activity in vitro, summary over viruses and cells. The class given is cell-based. The settings on record: depending on viruses or cells.

With `C[C@H](NP(=O)(O)OC[C@H]1O[C@@](C#N)(c2ccc3c(N)ncnn23)[C@H](O)[C@@H]1O)C(=O)O` [Ala-Nuc], in data set [1] (2 h), the “Concentration in PBMCs” value turned out to be 0.55 ng/10^6 cells, the Concentration in brain was found to be 24.16 ng/g tissue, the Concentration in epididymis turned out to be 24.05 ng/g tissue and the Concentration in heart is given as 3908.49 ng/g tissue. In data set [1] (2 h), this compound had a Concentration in liver of 1304.94 ng/g tissue and a Concentration in lung of 82.87 ng/g tissue. Moreover, in data set [1] (6 h), the “Concentration in PBMCs” value stood at 0.50 ng/10^6 cells, the Concentration in brain is listed as 38.27 ng/g tissue, the Concentration in epididymis was 48.37 ng/g tissue and the Concentration in heart is given as 5730.68 ng/g tissue. Besides, in data set [1] (6 h), the Concentration in liver stood at 416.97 ng/g tissue and the Concentration in lung was determined as 73.42 ng/g tissue.
On to `CC(C)OC(=O)[C@H](C)N[P@](=O)(OC[C@@]1(N=[N+]=[N-])O[C@@H](n2ccc(N)nc2=O)[C@@H](F)[C@@H]1O)Oc1ccccc1` [CL-236], for which the 50% effective concentration (EC50) is 4.31 µM in data set [2] (Severe acute respiratory syndrome coronavirus 2, Vero C1008, 48 h, Vero E6, MOI 0.05, qRT-PCR, 48 h, read-out: EC50, SARS-CoV-2 RNA replication); 1.2 µM in data set [4] (Severe acute respiratory syndrome coronavirus 2, Calu-3, MOI 0.05, qRT-PCR, 48 h, read-out: EC50, SARS-CoV-2 RNA replication); 1.2 µM in data set [6] (Betacoronavirus 1, OC43, NCI-H460, evaluated by CPE, read-out: EC50, HCoV-OC43 infection); 1.2 to 4.3 µM in data set [7]. Also, the “selectivity index (SI)” value in data set [2] (Vero E6) is 15.35; in data set [4] (Calu-3), 83. Moreover, in data set [2] (Vero E6, 48 h), the “cytopathic effect (CPE) of SARS-CoV-2” value is given as “protected the cells from SARS-CoV-2-caused cell death”. The cytotoxic concentration (CC50) at 48 h in data set [3] is 66.2 µM; in data set [5], greater than 102 µM. Further, the “HCoV-OC43 N protein expression” value in data set [6] (Western blot, 48 h) is reported as “decrease in N protein expression”. In data set [6] (evaluated by CPE), this compound yielded an SI of 20. In addition, the “selective index (SI)” value in data set [7] is given as 15–83.
With `N#C[C@@]1(c2ccc3c(N)ncnn23)O[C@H](COP(=O)(O)OP(=O)(O)O)[C@@H](O)[C@H]1O` [Nuc-DP], in data set [1] (2 h), the “Concentration in PBMCs” value worked out at 0.15 ng/10^6 cells, the Concentration in epididymis turned out to be 33.09 ng/g tissue and the Concentration in lung came to 146.16 ng/g tissue. In data set [1] (6 h), the “Concentration in PBMCs” value was 0.14 ng/10^6 cells, the Concentration in epididymis was determined as 49.65 ng/g tissue and the Concentration in lung is 118.94 ng/g tissue.
Consider `N#C[C@@]1(c2ccc3c(N)ncnn23)O[C@H](COP(=O)(O)O)[C@@H](O)[C@H]1O` [Nuc-MP], for which, in data set [1] (2 h), the “Concentration in PBMCs” value was determined as 0.44 ng/10^6 cells, the Concentration in epididymis is reported as 6493.99 ng/g tissue and the Concentration in lung is on record as 3904.37 ng/g tissue. For the same compound, in data set [1] (6 h), the “Concentration in PBMCs” value was 0.32 ng/10^6 cells, the Concentration in epididymis came to 555.72 ng/g tissue and the Concentration in lung is listed as 309.88 ng/g tissue.
For the compound `N#C[C@@]1(c2ccc3c(N)ncnn23)O[C@H](COP(=O)(O)OP(=O)(O)OP(=O)(O)O)[C@@H](O)[C@H]1O` [Nuc-TP], in data set [1] (2 h), the “Concentration in PBMCs” value was found to be 12.32 ng/10^6 cells, the Concentration in epididymis is given as 486.87 ng/g tissue and the Concentration in lung was determined as 3168.31 ng/g tissue. Moreover, in data set [1] (6 h), the “Concentration in PBMCs” value turned out to be 12.82 ng/10^6 cells, the Concentration in epididymis is recorded as 1225.27 ng/g tissue and the Concentration in lung was determined as 2057.66 ng/g tissue. In addition, the “level of Nuc-TP in the thymus” value in data set [1] (remdesivir ip, 2 and 6 h) was “below the detectable line”.
As for `CCC(CC)COC(=O)[C@H](C)N[P@](=O)(OC[C@H]1O[C@@](C#N)(c2ccc3c(N)ncnn23)[C@H](O)[C@@H]1O)Oc1ccccc1` [Remdesivir, reference compound], the concentration at 2 h in data set [1] (2 h, average n=5, read-out: Concentration in brain) is 0.61 ng/g; in data set [1] (2 h, average n=5, read-out: Concentration in epididymis), 42.1 ng/g; in data set [1] (2 h, average n=5, read-out: Concentration in heart) it was 5.12 ng/g; in data set [1] (2 h, average n=5, read-out: Concentration in kidney) it was 25.4 ng/g; in data set [1] (2 h, average n=5, read-out: Concentration in liver), 38.4 ng/g; in data set [1] (2 h, average n=5, read-out: Concentration in lung), 5.14 ng/g. For the same compound, the concentration at 2 h in data set [1] (2 h, average n=5, read-out: Concentration in spleen) came to 39.4 ng/g; in data set [1] (2 h, average n=5, read-out: Concentration in testis), 2.88 ng/g; in data set [1] (2 h, average n=5, read-out: Concentration in thymus) it was 29.9 ng/g. The concentration at 6 h was found to be 0.78 ng/g in data set [1] (6 h, average n=5, read-out: Concentration in brain); 0.6 ng/g in data set [1] (6 h, average n=5, read-out: Concentration in epididymis); 28.6 ng/g in data set [1] (6 h, average n=5, read-out: Concentration in heart); 0.84 ng/g in data set [1] (6 h, average n=5, read-out: Concentration in kidney); 13.1 ng/g in data set [1] (6 h, average n=5, read-out: Concentration in liver); 0.87 ng/g in data set [1] (6 h, average n=5, read-out: Concentration in lung). For the same compound, the concentration at 6 h in data set [1] (6 h, average n=5, read-out: Concentration in spleen) is 0.32 ng/g; in data set [1] (6 h, average n=5, read-out: Concentration in thymus), 2.74 ng/g.

One may read the EC50 as the concentration that produces a half-maximal response. One may read the CC50 as the concentration giving 50% cytotoxicity. Low values mean greater toxicity to the cells, high ones lower toxicity to the cells.
